System: pig weed (Amaranthus caudatus)
Test: Assay of cytokinin activity to promote synthesis of betacyanin by pig weed cotyledon sections
Assay type: cell-based
Details: 27°C, 20 hours, dark
Procedure: Two sheets of filter paper were put double in a plastic container (19 x 28 cm) and were wetted with 60 ml of distilled water. Seeds of pig weed were sown on the filter papers and were germinated by keeping them in the dark at 27°C for 3 days. Seedlings of uniform size were chosen and were cut at the upper part of the hypocotyl and the seed coats were removed. This cotyledon with hypocotyl of 3-4 mm in length was used for assay.
Two sheets of filter paper were put double in a glass tubular bottle 32 mm in inner diameter and 1 ml of 0.0065M potassium phosphate buffer solution (pH: 6.3) containing a given concentration of the candidate compound, benzyladenine or zeatin and 0.5 g/l of tyrosine was added therein and ten of the above cotyledon sections were arranged therein and kept at 27°C for 20 hours in the dark. These ten cotyledon sections were put in a test tube containing 3 ml of distilled water and betacyanin was extracted by repeating thrice freezing and thawing. Absorbance of the solution was measured and the amount of the dye was calculated by the difference between the absorbance at 542 nm and at 620 nm. For the untreated group, 0.0065M potassium phosphate buffer solution (pH: 6.3) containing 0.5 g/l of tyrosine was used.

SMILES: c1ccc(CNc2ncnc3nc[nH]c23)cc1 [Benzyladenine, 6-benzylaminopurine, reference compound]
- The amount of betacyanin produced (difference between absorbance at 542 nm and 620 nm) (0.001 mg/l): 0.038
- The amount of betacyanin produced (difference between absorbance at 542 nm and 620 nm) (0.01 mg/l): 0.076
- The amount of betacyanin produced (difference between absorbance at 542 nm and 620 nm) (0.1 mg/l): 0.192
- The amount of betacyanin produced (difference between absorbance at 542 nm and 620 nm) (1.0 mg/l): 0.260

SMILES: CON(C)CCNc1ncnc2nc[nH]c12 [MAED, N⁶-[2-(N-methoxy-N-methylamino)ethyl]adenine]
- The amount of betacyanin produced (difference between absorbance at 542 nm and 620 nm) (0.001 mg/l): 0.040
- The amount of betacyanin produced (difference between absorbance at 542 nm and 620 nm) (0.01 mg/l): 0.058
- The amount of betacyanin produced (difference between absorbance at 542 nm and 620 nm) (0.1 mg/l): 0.121
- The amount of betacyanin produced (difference between absorbance at 542 nm and 620 nm) (1.0 mg/l): 0.214
